Results taken from the supplement of paper PMC10307832.

Columns and labels:
Test in all cases: relative viability (nuclei count vs DMSO), 5 days (fraction); higher = more cells survive
Everolimus + Lapatinib = compound: CO[C@H]1C[C@@H]2CC[C@@H](C)[C@@](O)(O2)C(=O)C(=O)N2CCCC[C@H]2C(=O)O[C@H]([C@H](C)C[C@@H]2CC[C@@H](OCCO)[C@H](OC)C2)CC(=O)[C@H](C)/C=C(\C)[C@@H](O)[C@@H](OC)C(=O)[C@H](C)C[C@H](C)/C=C/C=C/C=C/1C [Everolimus] + CS(=O)(=O)CCNCc1ccc(-c2ccc3ncnc(Nc4ccc(OCc5cccc(F)c5)c(Cl)c4)c3c2)o1 [Lapatinib] (partner 2 µM)
Method in brief: (§1)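 Lung cancer cell lines in 1536-well plates were dosed by pin tool the day after seeding, either with one drug alone or with a fixed anchor-drug dose plus five library-drug doses (not always all listed) in √10 steps. After 5 days, cells were fixed and their nuclei stained in one step (final 0.05% Triton X-100, 1% formaldehyde, 1 ug/ml Hoechst), then counted on 4× images. Relative viability is the nuclei count in treated wells divided by that in vehicle wells. Values are medians of duplicate plates.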

Everolimus + Decitabine = compound: CO[C@H]1C[C@@H]2CC[C@@H](C)[C@@](O)(O2)C(=O)C(=O)N2CCCC[C@H]2C(=O)O[C@H]([C@H](C)C[C@@H]2CC[C@@H](OCCO)[C@H](OC)C2)CC(=O)[C@H](C)/C=C(\C)[C@@H](O)[C@@H](OC)C(=O)[C@H](C)C[C@H](C)/C=C/C=C/C=C/1C [Everolimus] + Nc1ncn([C@H]2C[C@H](O)[C@@H](CO)O2)c(=O)n1 [Decitabine] (partner 2 µM)
Method in brief: as §1

Everolimus + Olaparib = compound: CO[C@H]1C[C@@H]2CC[C@@H](C)[C@@](O)(O2)C(=O)C(=O)N2CCCC[C@H]2C(=O)O[C@H]([C@H](C)C[C@@H]2CC[C@@H](OCCO)[C@H](OC)C2)CC(=O)[C@H](C)/C=C(\C)[C@@H](O)[C@@H](OC)C(=O)[C@H](C)C[C@H](C)/C=C/C=C/C=C/1C [Everolimus] + O=C(c1cc(Cc2n[nH]c(=O)c3ccccc23)ccc1F)N1CCN(C(=O)C2CC2)CC1 [Olaparib] (partner 8 µM)
Method in brief: as §1

Everolimus + AZD7762 = compound: CO[C@H]1C[C@@H]2CC[C@@H](C)[C@@](O)(O2)C(=O)C(=O)N2CCCC[C@H]2C(=O)O[C@H]([C@H](C)C[C@@H]2CC[C@@H](OCCO)[C@H](OC)C2)CC(=O)[C@H](C)/C=C(\C)[C@@H](O)[C@@H](OC)C(=O)[C@H](C)C[C@H](C)/C=C/C=C/C=C/1C [Everolimus] + NC(=O)Nc1cc(-c2cccc(F)c2)sc1C(=O)N[C@H]1CCCNC1 [AZD7762] (partner 0.2 µM)
Method in brief: as §1

Cell Line | relative viability (Everolimus + Lapatinib; first compound 0.01 µM) | relative viability (Everolimus + Lapatinib; first compound 0.03162 µM) | relative viability (Everolimus + Lapatinib; first compound 0.1 µM) | relative viability (Everolimus + Lapatinib; first compound 0.3162 µM) | relative viability (Everolimus + Lapatinib; first compound 1 µM) | relative viability (Everolimus + Decitabine; first compound 0.01 µM) | relative viability (Everolimus + Decitabine; first compound 0.03162 µM) | relative viability (Everolimus + Decitabine; first compound 0.1 µM) | relative viability (Everolimus + Decitabine; first compound 0.3162 µM) | relative viability (Everolimus + Decitabine; first compound 1 µM) | relative viability (Everolimus + Olaparib; first compound 0.01 µM) | relative viability (Everolimus + Olaparib; first compound 0.03162 µM) | relative viability (Everolimus + Olaparib; first compound 0.1 µM) | relative viability (Everolimus + Olaparib; first compound 0.3162 µM) | relative viability (Everolimus + Olaparib; first compound 1 µM) | relative viability (Everolimus + AZD7762; first compound 0.01 µM) | relative viability (Everolimus + AZD7762; first compound 0.03162 µM) | relative viability (Everolimus + AZD7762; first compound 0.1 µM) | relative viability (Everolimus + AZD7762; first compound 0.3162 µM) | relative viability (Everolimus + AZD7762; first compound 1 µM)
NCI-H1944 | 0.633 | 0.669 | 0.617 | 0.604 | 0.541 | 0.409 | 0.409 | 0.386 | 0.396 | 0.355 | 0.389 | 0.329 | 0.325 | 0.35 | 0.351 | 0.341 | 0.437 | 0.354 | 0.325 | 0.306
NCI-H1975 | 0.788 | 0.669 | 0.669 | 0.762 | 0.676 | 0.365 | 0.425 | 0.327 | 0.385 | 0.337 | 0.752 | 0.654 | 0.697 | 0.691 | 0.655 | 0.591 | 0.571 | 0.533 | 0.433 | 0.531
NCI-H1993 | 0.725 | 0.69 | 0.649 | 0.791 | 0.807 | 0.468 | 0.542 | 0.433 | 0.46 | 0.447 | 0.584 | 0.364 | 0.499 | 0.529 | 0.558 | 0.461 | 0.505 | 0.371 | 0.472 | 0.439
NCI-H2085 | 0.489 | 0.364 | 0.434 | 0.506 | 0.486 | 0.508 | 0.536 | 0.483 | 0.478 | 0.395 | 0.704 | 0.75 | 0.698 | 0.705 | 0.583 | 0.808 | 0.753 | 0.45 | 0.654 | 0.481
NCI-H2087 | 1.2 | 1.05 | 0.824 | 0.848 | 1.05 | 0.229 | 0.205 | 0.2 | 0.198 | 0.257 | 0.491 | 0.444 | 0.524 | 0.465 | 0.508 | 1.25 | 1.51 | 1.2 | 1.36 | 1.35
NCI-H2126 | 0.458 | 0.485 | 0.426 | 0.472 | 0.501 | 0.484 | 0.421 | 0.452 | 0.505 | 0.497 | 0.714 | 0.583 | 0.502 | 0.602 | 0.603 | 0.688 | 0.598 | 0.629 | 0.688 | 0.703
NCI-H2170 | 0.214 | 0.242 | 0.228 | 0.222 | 0.247 | 0.287 | 0.274 | 0.257 | 0.28 | 0.262 | 0.361 | 0.285 | 0.318 | 0.329 | 0.316 | 0.367 | 0.403 | 0.334 | 0.374 | 0.401
NCI-H2347 | 0.813 | 1.07 | 0.663 | 0.868 | 0.811 | 0.567 | 0.509 | 0.553 | 0.526 | 0.548 | 0.565 | 0.54 | 0.527 | 0.525 | 0.505 | 0.651 | 0.618 | 0.576 | 0.622 | 0.439
NCI-H2405 | 0.84 | 0.903 | 0.712 | 0.872 | 0.796 | 0.521 | 0.531 | 0.539 | 0.532 | 0.52 | 0.757 | 0.745 | 0.681 | 0.713 | 0.686 | 0.655 | 0.652 | 0.657 | 0.637 | 0.662
NCI-H3122 | 1.09 | 1.16 | 1.06 | 1.07 | 0.951 | 0.267 | 0.253 | 0.213 | 0.215 | 0.203 | 0.638 | 0.643 | 0.497 | 0.476 | 0.579 | 0.75 | 0.765 | 0.711 | 0.629 | 0.725
PC-3 [JPC-3] | 0.372 | 0.382 | 0.346 | 0.359 | 0.412 | 0.813 | 0.794 | 0.687 |  | 0.802 | 1.07 | 1.21 | 1.1 |  | 1.05 | 0.58 | 0.499 | 0.615 |  | 0.647
PC-14 | 0.231 | 0.226 | 0.22 | 0.192 | 0.234 | 0.276 | 0.26 | 0.235 | 0.296 | 0.293 | 0.46 | 0.434 | 0.298 | 0.343 | 0.411 | 0.201 | 0.204 | 0.171 | 0.145 | 0.163
RERF-LC-KJ | 0.636 | 0.597 | 0.503 | 0.487 | 0.486 | 0.535 | 0.594 | 0.552 | 0.541 | 0.45 | 0.666 | 0.61 | 0.593 | 0.605 | 0.606 | 0.566 | 0.415 | 0.462 | 0.507 | 0.598
